# Results from US12325697B2 (Nimbus Clio, Inc., priority 2021, dated 2025).
# Like-named read-outs stand apart in the source and are kept apart here.
# Experiments:
# [1] = biological target: Recombinant human Cbl-b (aa 36-427) (Homo sapiens (Human), UniProt Q13191); test: Cbl-b Biochemical Assay (TR-FRET); conditions: read-out: TR-FRET hCbl-b IC50
# Outline: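 Two-step TR-FRET: 6 nM biotinylated Cbl-b preincubated 30-60 min with compound, then 60 min at RT with 1-2.5 nM Src-Zap70 and 0.5 mM ATP in HEPES pH 7.0 buffer, 1% DMSO. Stopped with 5 mM EDTA plus 100 nM UBE2D2-Ub-FL-BODIPY and 1 nM streptavidin-Tb, 60 min; 520 nm signal; IC50 from 4-parameter fit.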
# [2] = system: Jurkat (clone E6-1) cells, NFAT luciferase reporter; test: Jurkat Reporter Assay (NFAT Luciferase); type: cell-based; conditions: Homo sapiens
# [3] = system: Phospho-Zap70 (Y-319) in Jurkat wild-type (clone E6-1) cells; test: Jurkat pZAP70 HTRF Assay; type: cell-based; conditions: Homo sapiens
# [4] = anti-CD3 stimulation, 6 hr, read-out: Jurkat NFAT EC50
# [5] = anti-CD3 5 μg/ml, 3 hr, read-out: ZAP70 Jurkat EC50
# Chain of Recombinant human Cbl-b (aa 36-427) (Q13191 36-427): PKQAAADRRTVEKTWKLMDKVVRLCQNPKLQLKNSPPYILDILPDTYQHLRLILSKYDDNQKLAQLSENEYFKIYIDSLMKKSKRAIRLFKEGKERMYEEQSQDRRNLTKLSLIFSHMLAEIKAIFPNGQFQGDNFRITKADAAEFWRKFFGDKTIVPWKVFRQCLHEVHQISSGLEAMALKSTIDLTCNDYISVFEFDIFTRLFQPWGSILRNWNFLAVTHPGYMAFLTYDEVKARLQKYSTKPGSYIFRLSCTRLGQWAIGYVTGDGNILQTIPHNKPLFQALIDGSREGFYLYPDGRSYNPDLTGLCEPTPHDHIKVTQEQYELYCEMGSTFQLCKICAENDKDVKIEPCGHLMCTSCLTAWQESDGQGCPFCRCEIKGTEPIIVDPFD
smiles,measurement,setting,value
"CCNc1cc(-c2ccc(C#N)cc2-c2nncn2C)cc(N2Cc3c(cc(OC)cc3C(F)(F)F)C2=O)n1 [AEU-8, 4-[2-(Ethylamino)-6-[6-methoxy-1-oxo-4-(trifluoromethyl)-3H-isoindol-2-yl]pyridin-4-yl]-3-(4-methyl-1,2,4-triazol-3-yl)benzonitrile]",IC50,[1],≤ 200 nM
same,EC50,[2]; [4],< 0.2 µM
same,EC50,[3]; [5],0.2 to 1 µM
"Cn1cnnc1-c1cc(C#N)ccc1-c1cccc(N2Cc3c(cc(CNCC4(O)CCC4)cc3C(F)(F)F)C2=O)c1 [ADV-1, 3′-[6-({[(1-Hydroxycyclobutyl)methyl]amino}methyl)-1-oxo-4-(trifluoromethyl)-3H-isoindol-2-yl]-2-(4-methyl-1,2,4-triazol-3-yl)-[1,1′-biphenyl]-4-carbonitrile]",IC50,[1],≤ 200 nM
same,EC50,[2]; [4],< 0.2 µM
same,EC50,[3]; [5],< 0.2 µM
"Cn1cnnc1-c1cc(F)ccc1-c1cccc(N2Cc3ccc(CNCC4(O)CCC4)cc3C2=O)c1 [AHA-2, 2-(4′-Fluoro-2′-(4-methyl-4H-1,2,4-triazol-3-yl)-[1,1′-biphenyl]-3-yl)-6-((((1-hydroxycyclobutyl)methyl)amino)methyl) isoindolin-1-one]",IC50,[1],≤ 200 nM
same,EC50,[2]; [4],< 0.2 µM
same,EC50,[3]; [5],0.2 to 1 µM
"CN1CC[C@@H](COCc2cc3c(c(C(F)(F)F)c2)CN(c2cc(-c4ccc(F)cc4-c4nncn4C)cc(C4CC4)n2)C3=O)C1 [AHI-4, 2-{6-Cyclopropyl-4-[4-fluoro-2-(4-methyl-1,2,4-triazol-3-yl)phenyl]pyridin-2-yl}-6-({[(3R)-1-methylpyrrolidin-3-yl]methoxy}methyl)-4-(trifluoromethyl)-3H-isoindol-1-one]",IC50,[1],≤ 200 nM
same,EC50,[2]; [4],< 0.2 µM
same,EC50,[3]; [5],0.2 to 1 µM
"CCNc1cc(-c2ccc(C#N)cc2-c2nncn2C)cc(N2Cc3c(cc(CNCCOC4CC4)cc3C(F)(F)F)C2=O)n1 [AGD-2, 4-[2-(6-{[(2-Cyclopropoxyethyl)amino]methyl}-1-oxo-4-(trifluoromethyl)-3H-isoindol-2-yl)-6-(ethylamino)pyridin-4-yl]-3-(4-methyl-1,2,4-triazol-3-yl)benzonitrile]",IC50,[1],≤ 200 nM
same,EC50,[2]; [4],< 0.2 µM
same,EC50,[3]; [5],< 0.2 µM
"CCNc1cc(-c2ccc(C#N)cc2-c2nncn2C)cc(N2Cc3c(cc(CN4CCC[C@@H](C)C4)cc3C(F)(F)F)C2=O)n1 [ADU-2, 4-[2-(Ethylamino)-6-(6-{[(3R)-3-methylpiperidin-1-yl]methyl}-1-oxo-4-(trifluoromethyl)-3H-isoindol-2-yl)pyridin-4-yl]-3-(4-methyl-1,2,4-triazol-3-yl) benzonitrile]",IC50,[1],≤ 200 nM
same,EC50,"[2]; 6 h, read-out: Jurkat NFAT EC50 (μM)",< 0.2 µM
same,EC50,"[3]; 3 h, read-out: ZAP70 Jurkat EC50 (μM)",0.2 to 1 µM
"Cn1cnnc1-c1cc(F)ccc1-c1cc(C2CC2)nc(N2Cc3c(cc(COCC4(N)CCC4)cc3C(F)(F)F)C2=O)c1 [AGG-2, 6-{1[(1-Aminocyclobutyl)methoxy]methyl}-2-{6-cyclopropyl-4-[4-fluoro-2-(4-methyl-1,2,4-triazol-3-yl)phenyl]pyridin-2-yl}-4-(trifluoromethyl)-3H-isoindol-1-one]",IC50,[1],≤ 200 nM
same,EC50,[2]; [4],< 0.2 µM
same,EC50,[3]; [5],< 0.2 µM
"Cn1cnnc1-c1cc(F)ccc1-c1cc(C2CC2)nc(N2Cc3ccc(CN[C@@H]4CCC[C@@H]4O)cc3C2=O)c1 [AFO-2, 2-{6-Cyclopropyl-4-[4-fluoro-2-(4-methyl-1,2,4-triazol-3-yl)phenyl]pyridin-2-yl}-6-({[(1R,2S)-2-hydroxycyclopentyl]amino}methyl)-3H-isoindol-1-one]",IC50,[1],≤ 200 nM
same,EC50,[2]; [4],< 0.2 µM
same,EC50,[3]; [5],< 0.2 µM
"CCNc1cc(-c2ccc(C#N)cc2-c2nncn2C)cc(N2Cc3c(cccc3C(F)(F)F)C2=O)n1 [ADP-8, 4-[2-(Ethylamino)-6-[1-oxo-4-(trifluoromethyl)-3H-isoindol-2-yl]pyridin-4-yl]-3-(4-methyl-1,2,4-triazol-3-yl)benzonitrile]",IC50,[1],≤ 200 nM
same,EC50,[2]; [4],< 0.2 µM
same,EC50,[3]; [5],1 to 10 µM
"Cn1cnnc1-c1cc(C#N)ccc1-c1cc(C2CC2)nc(N2Cc3ccc(CNCCOC(F)(F)F)cc3C2=O)c1 [AGT-3, 4-{2-Cyclopropyl-6-[1-oxo-6-({[2-(trifluoromethoxy)ethyl]amino}methyl)-3H-isoindol-2-yl]pyridin-4-yl}-3-(4-methyl-1,2,4-triazol-3-yl)benzonitrile]",IC50,[1],≤ 200 nM
same,EC50,[2]; [4],< 0.2 µM
same,EC50,[3]; [5],< 0.2 µM
CCNc1cc(-c2ccc(F)cc2-c2nncn2C)cc(N2Cc3c(cc(COCC4(N)CCC4)cc3C(F)(F)F)C2=O)n1 [AGS-2],IC50,[1],≤ 200 nM
same,EC50,[2]; [4],< 0.2 µM
same,EC50,[3]; [5],< 0.2 µM
"Cn1cnnc1-c1cc(F)ccc1-c1cccc(N2Cc3ccc(CNCC4(O)CCCC4)cc3C2=O)c1 [AHB-1, 2-(4′-Fluoro-2′-(4-methyl-4H-1,2,4-triazol-3-yl)-[1,1′-biphenyl]-3-yl)-6-((((1-hydroxycyclopentyl)methyl)amino)methyl) isoindolin-1-one]",IC50,[1],≤ 200 nM
same,EC50,[2]; [4],< 0.2 µM
same,EC50,[3]; [5],< 0.2 µM
"C[C@H]1CCCN(Cc2cc3c(c(C(F)(F)F)c2)CN(c2cccc(-c4ccc(C#N)cc4-c4nncn4C)c2)C3=O)C1 [ADQ-2, 2-(4-methyl-1,2,4-triazol-3-yl)-3′-(6-{[(3S)-3-methylpiperidin-1-yl]methyl}-1-oxo-4-(trifluoromethyl)-3H-isoindol-2-yl)-[1,1′-biphenyl]-4-carbonitrile]",IC50,[1],≤ 200 nM
same,EC50,[2]; [4],< 0.2 µM
same,EC50,[3]; [5],< 0.2 µM
"C[C@H](NCC1(O)CCC1)c1cc2c(c(C(F)(F)F)c1)CN(c1cc(-c3ccccc3-c3nncn3C)cc(C3CC3)n1)C2=O (single isomer, unassigned) [AFT-2]",IC50,[1],≤ 200 nM
same,EC50,[2]; [4],< 0.2 µM
same,EC50,[3]; [5],< 0.2 µM
Cn1cnnc1-c1cnn(C)c1-c1cc(C2CC2)nc(N2Cc3c(cc(CNCC4(O)CCC4)cc3C(F)(F)F)C2=O)c1 [ADR-3],IC50,[1],≤ 200 nM
same,EC50,[2]; [4],< 0.2 µM
same,EC50,[3]; [5],< 0.2 µM
"COCCNCc1cc2c(c(C(F)(F)F)c1)CN(c1cccc(-c3ccc(C#N)cc3-c3nncn3C)c1)C2=O [AEB-2, 3′-(6-(((2-Methoxyethyl)amino)methyl)-1-oxo-4-(trifluoromethyl)isoindolin-2-yl)-2-(4-methyl-4H-1,2,4-triazol-3-yl)-[1,1′-biphenyl]-4-carbonitrile]",IC50,[1],≤ 200 nM
same,EC50,[2]; [4],< 0.2 µM
same,EC50,[3]; [5],< 0.2 µM
"CCNc1cc(-c2ccc(C#N)cc2-c2nncn2C)cc(N2Cc3c(cc(CO)cc3C(F)(F)F)C2=O)n1 [ADX-2, 4-[2-(Ethylamino)-6-[6-(hydroxymethyl)-1-oxo-4-(trifluoromethyl)-3H-isoindol-2-yl]pyridin-4-yl]-3-(4-methyl-1,2,4-triazol-3-yl) benzonitrile]",IC50,[1],≤ 200 nM
same,EC50,[2]; [4],< 0.2 µM
same,EC50,[3]; [5],0.2 to 1 µM
"CCNc1cc(-c2ccc(C#N)cc2-c2nncn2C)cc(N2Cc3c(cc(CNCCOC)cc3C(F)(F)F)C2=O)n1 [AEC-2, 4-[2-(Ethylamino)-6-(6-{[(2-methoxyethyl)amino]methyl}-1-oxo-4-(trifluoromethyl)-3H-isoindol-2-yl)pyridin-4-yl]-3-(4-methyl-1,2,4-triazol-3-yl)benzonitrile]",IC50,[1],≤ 200 nM
same,EC50,[2]; [4],< 0.2 µM
same,EC50,[3]; [5],< 0.2 µM
"Cn1cnnc1-c1cc(C#N)ccc1-c1cc(C2CC2)nc(N2Cc3ccc(CNCC4(O)CCC4)cc3C2=O)c1 [AFJ-1, 4-{2-Cyclopropyl-6-[6-({[(1-hydroxycyclobutyl)methyl]amino}methyl)-1-oxo-3H-isoindol-2-yl]pyridin-4-yl}-3-(4-methyl-1,2,4-triazol-3-yl)benzonitrile]",IC50,[1],≤ 200 nM
same,EC50,[2]; [4],< 0.2 µM
same,EC50,[3]; [5],< 0.2 µM
